Assay results: the supplement of paper PMC10307832

Key:
Test in all cases: relative viability (nuclei count vs DMSO), 5 days (fraction); higher = more cells survive
Tipifarnib + Lapatinib = compound: Cn1cncc1[C@@](N)(c1ccc(Cl)cc1)c1ccc2c(c1)c(-c1cccc(Cl)c1)cc(=O)n2C [Tipifarnib] + CS(=O)(=O)CCNCc1ccc(-c2ccc3ncnc(Nc4ccc(OCc5cccc(F)c5)c(Cl)c4)c3c2)o1 [Lapatinib] (partner 2 µM)
Procedure, shortened: (§1)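 Relative viability was taken as the ratio of nuclei in treated wells to nuclei in vehicle wells. Lung cancer cell lines in 1536-well plates received compounds by pin tool one day after seeding, either one drug alone or a fixed anchor-drug dose plus five library-drug doses (not always all listed) in √10 steps. Nuclei were counted on 4× images after 5 days of treatment, and values are medians of duplicate plates.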

Tipifarnib + Linsitinib = compound: Cn1cncc1[C@@](N)(c1ccc(Cl)cc1)c1ccc2c(c1)c(-c1cccc(Cl)c1)cc(=O)n2C [Tipifarnib] + C[C@]1(O)C[C@@H](c2nc(-c3ccc4ccc(-c5ccccc5)nc4c3)c3c(N)nccn32)C1 [Linsitinib] (partner 1 µM)
Procedure, shortened: as §1

Tipifarnib + OSI-027 = compound: Cn1cncc1[C@@](N)(c1ccc(Cl)cc1)c1ccc2c(c1)c(-c1cccc(Cl)c1)cc(=O)n2C [Tipifarnib] + COc1cccc2cc(-c3nc([C@H]4CC[C@H](C(=O)O)CC4)n4ncnc(N)c34)[nH]c12 [OSI-027] (partner 0.5 µM)
Procedure, shortened: as §1

Tipifarnib + Luminespib = compound: Cn1cncc1[C@@](N)(c1ccc(Cl)cc1)c1ccc2c(c1)c(-c1cccc(Cl)c1)cc(=O)n2C [Tipifarnib] + CCNC(=O)c1noc(-c2cc(C(C)C)c(O)cc2O)c1-c1ccc(CN2CCOCC2)cc1 [Luminespib] (partner 0.01 µM)
Procedure, shortened: as §1

Cell Line	relative viability (Tipifarnib + Lapatinib; first compound 0.01 µM)	relative viability (Tipifarnib + Lapatinib; first compound 0.03162 µM)	relative viability (Tipifarnib + Lapatinib; first compound 0.1 µM)	relative viability (Tipifarnib + Lapatinib; first compound 0.3162 µM)	relative viability (Tipifarnib + Lapatinib; first compound 1 µM)	relative viability (Tipifarnib + Linsitinib; first compound 0.01 µM)	relative viability (Tipifarnib + Linsitinib; first compound 0.03162 µM)	relative viability (Tipifarnib + Linsitinib; first compound 0.1 µM)	relative viability (Tipifarnib + Linsitinib; first compound 0.3162 µM)	relative viability (Tipifarnib + Linsitinib; first compound 1 µM)	relative viability (Tipifarnib + OSI-027; first compound 0.01 µM)	relative viability (Tipifarnib + OSI-027; first compound 0.03162 µM)	relative viability (Tipifarnib + OSI-027; first compound 0.1 µM)	relative viability (Tipifarnib + OSI-027; first compound 0.3162 µM)	relative viability (Tipifarnib + OSI-027; first compound 1 µM)	relative viability (Tipifarnib + Luminespib; first compound 0.01 µM)	relative viability (Tipifarnib + Luminespib; first compound 0.03162 µM)	relative viability (Tipifarnib + Luminespib; first compound 0.1 µM)	relative viability (Tipifarnib + Luminespib; first compound 0.3162 µM)	relative viability (Tipifarnib + Luminespib; first compound 1 µM)
NCI-H838	0.965	0.952	0.644	0.615	0.393	0.955	0.826	0.684	0.628	0.6	0.357	0.339	0.23	0.231	0.184	0.41	0.266	0.212	0.21	0.211
NCI-H1437	0.873	0.864	0.738	0.727	0.248	1.15	0.993	1.04	0.816	0.698	0.823	0.728	0.488	0.446	0.33	1.25	1.17	1.15	0.913	1.07
SK-LU-1	0.725	0.75	0.857	0.388	0.367	0.986	0.728	0.642	0.631	0.67	0.324	0.286	0.293	0.222	0.181	0.252	0.212	0.208	0.236	0.193
BEN	0.743	0.842	0.629	0.578	0.568	1.03	1.18	0.835	0.696	0.716	0.296	0.289	0.303	0.262	0.309	0.324	0.459	0.226	0.17	0.351
LC-2-ad	0.843	0.592	0.367	0.436	0.178	0.756	0.705	0.487	0.448	0.369	0.765	0.755	0.522	0.499	0.438	1.02	0.897	0.767	0.753	0.717
COR-L23	0.942	0.641	0.739	0.582	0.4	1.01	0.628	0.614	0.374	0.409	0.572	0.36	0.261	0.24	0.202	0.814	0.568	0.511	0.344	0.438
RERF-LC-KJ	0.94	0.922	0.829	0.732	0.626	0.918	0.909	0.874	0.629	0.651	0.529	0.427	0.392	0.41	0.309	1.2	0.924	1.07	0.605	0.654
NCI-H1915	0.927	0.67	0.56	0.416	0.282	0.902	0.695	0.631	0.542	0.583	0.445	0.357	0.399	0.325	0.288	0.681	0.638	0.48	0.44	0.428
NCI-H596	0.99	1.09	1.04	0.868	0.608	1	1.03	0.854	0.934	0.844	0.725	0.627	0.606	0.398	0.506	1.08	0.796	0.849	0.828	0.63
NCI-H2009	0.99	0.707	0.708	0.602	0.326	1.19	1.09	0.903	0.702	0.667	0.659	0.362	0.335	0.299	0.245	0.955	0.827	0.786	0.528	0.599
NCI-H2126	0.782	0.724	0.769	0.761	0.469	0.758	0.617	0.692	0.692	0.682	0.719	0.719	0.711	0.614	0.435	0.982	0.947	0.7	0.876	0.723
LXF-289	0.88	0.865	0.855	0.787	0.708	0.989	0.951	0.865	0.876	0.897	0.951	0.699	0.709	0.6	0.293	0.651	0.68	0.701	0.554	0.444
NCI-H1563	1	0.956	1.02	0.891	0.879	1.13	1.13	1.13	1.03	1.14	0.725	0.777	0.721	0.641	0.62	0.491	0.558	0.538	0.519	0.526
